Test results reported in ChEMBL document CHEMBL1201862, “PubChem BioAssay data set” (2004).
Values joined by “and” are separate entries in the source; they are usually repeats but may differ in a detail not shown here. Equal values may be shown once.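 Five compound concentrations were applied to cells in 96-well plates for 48 hours; endpoints were derived by simple linear interpolation of the resulting dose-response curve. GI50: concentration for 50% inhibition of growth.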 Active and inactive are the calls of the source. Cut-off read from the data, not from the text of the source: active = GI50 up to about 1.1 µM and inactive = higher.

Tests used:
Experiment in all cases: growth of human tumour cells (NCI), 48 h
OVCAR-8 = system: OVCAR-8
SK-MEL-2 = system: SK-MEL-2
NCI/ADR-RES = system: NCI/ADR-RES
HCC 2998 = system: HCC 2998
SF-268 = system: SF-268
UACC-62 = system: UACC-62
HCT-15 = system: HCT-15
K562 = system: K562
Hs-578T = system: Hs-578T
786-0 = system: 786-0
MCF7 = system: MCF7
SK-OV-3 = system: SK-OV-3
NCI-H226 = system: NCI-H226
Malme-3M = system: Malme-3M
NCI-H23 = system: NCI-H23
SNB-19 = system: SNB-19
CCRF-CEM = system: CCRF-CEM
BT-549 = system: BT-549
RPMI-8226 = system: RPMI-8226
UACC-257 = system: UACC-257
SK-MEL-28 = system: SK-MEL-28
MDA-MB-231 = system: MDA-MB-231
UO-31 = system: UO-31
HL-60 = system: HL-60
NCI-H522 = system: NCI-H522
HCT-116 = system: HCT-116
SW-620 = system: SW-620
OVCAR-3 = system: OVCAR-3
SR = system: SR
MDA-N = system: MDA-N
ACHN = system: ACHN
RXF 393 = system: RXF 393
M14 = system: M14
HOP-92 = system: HOP-92
T47D = system: T47D
MDA-MB-435 = system: MDA-MB-435
MOLT-4 = system: MOLT-4
SK-MEL-5 = system: SK-MEL-5
HOP-62 = system: HOP-62
TK-10 = system: TK-10
SF-295 = system: SF-295
NCI-H460 = system: NCI-H460
CAKI-1 = system: CAKI-1
SN12C = system: SN12C
OVCAR-5 = system: OVCAR-5
LOX IMVI = system: LOX IMVI
SF-539 = system: SF-539
EKVX = system: EKVX
OVCAR-4 = system: OVCAR-4
COLO 205 = system: COLO 205
KM12 = system: KM12
A549 = system: A549
A498 = system: A498
U-251 = system: U-251
DU-145 = system: DU-145
HT-29 = system: HT-29
IGROV-1 = system: IGROV-1

## COc1cc(/C=C2/SC(c3ccccc3)N(c3ccccc3Cl)C2=O)cc(OC)c1OC (stereo unspecified)
OVCAR-8
  GI50: 35.2 µM (inactive)
SK-MEL-2
  GI50: 33.9 µM (inactive)
NCI/ADR-RES
  GI50: 25.9 µM (inactive)
HCC 2998
  GI50: 88.1 µM (inactive)
SF-268
  GI50: 41.1 µM (inactive)
UACC-62
  GI50: 37.9 µM (inactive)
HCT-15
  GI50: 31.6 µM
K562
  GI50: 31.2 µM (inactive)
Hs-578T
  GI50: 30 µM (inactive)
786-0
  GI50: 25.9 µM (inactive)
MCF7
  GI50: 35.9 µM (inactive)
SK-OV-3
  GI50: 19.8 µM (inactive)
NCI-H226
  GI50: 30.1 µM (inactive)
Malme-3M
  GI50: 23.4 µM (inactive)
NCI-H23
  GI50: 22.8 µM (inactive)
SNB-19
  GI50: 28.2 µM (inactive)
CCRF-CEM
  GI50: 12.2 µM (inactive)
BT-549
  GI50: 28.2 µM (inactive)
RPMI-8226
  GI50: 21.7 µM (inactive)
UACC-257
  GI50: 42.2 µM (inactive)
SK-MEL-28
  GI50: 30.5 µM (inactive)
MDA-MB-231
  GI50: 58.3 µM (inactive)
UO-31
  GI50: 35.4 µM (inactive)
HL-60
  GI50: 16.5 µM (inactive)
NCI-H522
  GI50: 14.9 µM (inactive)
HCT-116
  GI50: 23.7 µM (inactive)
SW-620
  GI50: 37.8 µM (inactive)
OVCAR-3
  GI50: 27.9 µM (inactive)
SR
  GI50: 23.8 µM (inactive)
MDA-N
  GI50: 28 µM (inactive)
ACHN
  GI50: 58.1 µM (inactive)
RXF 393
  GI50: 20.7 µM (inactive)
M14
  GI50: 30.1 µM (inactive)
HOP-92
  GI50: 26.1 µM (inactive)
T47D
  GI50: 29.2 µM (inactive)
MDA-MB-435
  GI50: 27.2 µM (inactive)
MOLT-4
  GI50: 28.6 µM (inactive)
SK-MEL-5
  GI50: 15.4 µM (inactive)
HOP-62
  GI50: 33.6 µM (inactive)
TK-10
  GI50: 69.5 µM (inactive)
SF-295
  GI50: 32.1 µM (inactive)
NCI-H460
  GI50: 43.7 µM (inactive)
CAKI-1
  GI50: 55.7 µM (inactive)
SN12C
  GI50: 23.7 µM (inactive)
OVCAR-5
  GI50: 69.5 µM (inactive)
LOX IMVI
  GI50: 17.6 µM (inactive)
SF-539
  GI50: 19.7 µM (inactive)
EKVX
  GI50: 44.1 µM (inactive)
OVCAR-4
  GI50: 41.6 µM (inactive)
COLO 205
  GI50: 23.3 µM (inactive)
KM12
  GI50: 26.8 µM (inactive)
A549
  GI50: 36.3 µM (inactive)
A498
  GI50: 87.3 µM (inactive)
U-251
  GI50: 23.1 µM (inactive)
DU-145
  GI50: 45 µM (inactive)

## C=CCN1C(=O)/C(=C/c2ccc(Cl)cc2)N=C1SC1OC(COC(C)=O)C(OC(C)=O)C(OC(C)=O)C1OC(C)=O (stereo unspecified)
OVCAR-8
  GI50: 15.7 µM (inactive) and 8.43 µM (inactive)
SF-268
  GI50: 1.64 µM (inactive)
Hs-578T
  GI50: 2.54 µM (inactive)
786-0
  GI50: 3.5 µM (inactive)
HT-29
  GI50: 35.6 µM (inactive)
MCF7
  GI50: 12.7 µM (inactive) and 7.41 µM (inactive)
SK-OV-3
  GI50: > 39.8 µM (inactive) and 27.1 µM (inactive)
NCI-H23
  GI50: 20 µM (inactive) and 25.1 µM (inactive)
SNB-19
  GI50: 15.8 µM (inactive)
CCRF-CEM
  GI50: 37.2 µM (inactive)
BT-549
  GI50: 31.3 µM (inactive) and 15.7 µM (inactive)
UACC-257
  GI50: 18.9 µM (inactive) and 12.2 µM (inactive)
SK-MEL-28
  GI50: 39.4 µM (inactive) and 56.9 µM (inactive)
NCI-H522
  GI50: 2.98 µM (inactive) and 3.81 µM (inactive)
HCT-116
  GI50: 5.02 µM (inactive)
OVCAR-3
  GI50: 11.6 µM (inactive) and 18.5 µM (inactive)
MDA-N
  GI50: 25.8 µM (inactive)
M14
  GI50: 28.1 µM (inactive)
T47D
  GI50: 8.51 µM (inactive)
MDA-MB-435
  GI50: 14 µM (inactive) and 13.8 µM (inactive)
SK-MEL-5
  GI50: 26.6 µM (inactive) and 15.8 µM (inactive)
TK-10
  GI50: 46.2 µM (inactive) and > 42.6 µM (inactive)
CAKI-1
  GI50: 10.9 µM (inactive) and 9.93 µM (inactive)
SN12C
  GI50: 16.5 µM (inactive)
LOX IMVI
  GI50: 22.9 µM (inactive) and 29.9 µM (inactive)
SF-539
  GI50: 33 µM (inactive) and 25.3 µM (inactive)
EKVX
  GI50: 24.3 µM (inactive) and 33.4 µM (inactive)
IGROV-1
  GI50: 22.4 µM (inactive) and 33 µM (inactive)
KM12
  GI50: 30.2 µM (inactive) and 22.8 µM (inactive)
A549
  GI50: 14.4 µM (inactive)
DU-145
  GI50: 24 µM (inactive) and 14.6 µM (inactive)
